For the test, the system named is mice neuroblastoma cells (HT-22). Put plainly: Determination of Cellular Protection (HT22). The conditions noted are these: Mus musculus, HT-22, 16 h, read-out: HT22 IC50.
By IC50 is commonly meant the concentration at which inhibition is half-maximal. Take `CC(C)Nc1ccc2c(c1)/C(=C1\CCOCCN1)C(=O)N2C(C)C` [Compound 82]: the IC50 was determined as 26 nM.

For `Nc1ccc2c(c1)/C(=C1\CCCN1)C(=O)N2C1CCOCC1` [Compound 83], the IC50 worked out at 2080 nM. To `CC1CCC(C)N1c1ccc2c(c1)/C(=C1\COCCN1)C(=O)N2C` (stereo not shown) [Compound 84] belongs 141 nM; to `CC1CCN(c2ccc3c(c2)/C(=C2\COCCN2)C(=O)N3C2CCOCC2)CC1` [Compound 85], 264 nM.

In the case of `O=C1/C(=C2/COCCN2)c2cc(N3CCCCC3)ccc2N1C1CCOCC1` [Compound 86], the half-maximal inhibitory concentration (IC50) amounted to 1110 nM.

In the case of `CC(C)Nc1ccc2c(c1)/C(=C1\CN(C(C)C)CCN1)C(=O)N2C(C)C` [Compound 88], the IC50 worked out at 10 nM.

In the case of `CCOC(=O)N1CCC(N2C(=O)/C(=C3/COCCN3)c3cc(N(C)C)ccc32)CC1` [Compound 89], the IC50 is 493 nM. `CC(C)Nc1ccc2c(c1)/C(=C1\COCCN1)C(=O)N2C(C)(C)C` [Compound 90]: the half-inhibitory concentration (IC50) was found to be 32 nM. To `CC(C)N1CCC2(CC1)CN/C(=C1\C(=O)N(C(C)C)c3ccc(N4CCCC4)cc31)CO2` [Compound 91] belongs 9 nM; to `CC1COC/C(=C2/C(=O)N(C3CCOCC3)c3ccc(N4C(C)CCC4C)cc32)N1` (stereo not shown) [Compound 93], 101 nM. Under `CC(C)N1C(=O)/C(=C2/COCCN2)c2cc(NC3CCCC3)ccc21` [Compound 94] stands 27 nM. Under `CC(C)C(C)Nc1ccc2c(c1)/C(=C1\COCCN1)C(=O)N2C(C)C` (stereo not shown) [Compound 95] stands 6 nM. Turning to `CC(C)N1CCC(Nc2ccc3c(c2)/C(=C2\COCCN2)C(=O)N3C(C)C)CC1` [Compound 96], the IC50 was 41 nM. To `CC(Nc1ccc2c(c1)/C(=C1\COCCN1)C(=O)N2C(C)C)C1CC1` (stereo not shown) [Compound 97] belongs 17 nM. Under `CC(C)N1C(=O)/C(=C2/COCCN2)c2cc(NC3COC3)ccc21` [Compound 98] stands 166 nM. Under `COCC(C)Nc1ccc2c(c1)/C(=C1\COCCN1)C(=O)N2C1CCOCC1` (stereo not shown) [Compound 99] stands 163 nM. In the case of `CC(Nc1ccc2c(c1)/C(=C1\COCCN1)C(=O)N2C1CCOCC1)c1cccnc1` (stereo not shown) [Compound 100], the IC50 is 397 nM. `CC1CCCC1Nc1ccc2c(c1)/C(=C1\COCCN1)C(=O)N2C1CCOCC1` (stereo not shown) [Compound 102]: the IC50 was 3 nM. Under `O=C1/C(=C2/COCCN2)c2cc(NCC3CC3)ccc2N1C1CCOCC1` [Compound 103] stands 105 nM. `CN(C)c1ccc2c(c1)/C(=C1\CCCCCN1)C(=O)N2C` [Compound 105]: the IC50 is 91 nM. In the case of `CN(C)c1ccc2c(c1)/C(=C1/NCCN1c1ccccc1)C(=O)N2C` [Compound 106], the IC50 came out at 142 nM. Consider `CN1C(=O)/C(=C2/CCOCCN2)c2cc(N3CCCC3)ccc21` [Compound 107], for which the IC50 was determined as 69 nM.

On to `CN(C)c1ccc2c(c1)/C(=C1\CCN(C(=O)OCc3ccccc3)CCN1)C(=O)N2C` [Compound 108], for which the IC50 was determined as 128 nM.

With `CC(C)N1CCN/C(=C2\C(=O)N(C)c3ccc(N4CCCC4)cc32)CC1` [Compound 110], the IC50 is 19 nM.

On to `CC(=O)N1CCN/C(=C2\C(=O)N(C3CCOCC3)c3ccc(NC(C)C)cc32)C1` [Compound 111], for which the half-inhibitory concentration (IC50) is 249 nM. On to `O=C1C(=C2CCOCC2)c2cc(N3CCCC3)ccc2N1C1CCOCC1` [Compound 112], for which the IC50 is 86 nM. As to `CC(C)N1C(=O)/C(=C2/CCCCN2)c2cc(N(C3CCC3)C3CCC3)ccc21` [Compound 113], the IC50 came to 18 nM. On to `CC(C)Nc1ccc2c(c1)/C(=C1\CN(C3COC3)CCN1)C(=O)N2C(C)C` [Compound 114], for which the IC50 came to 104 nM.

As for `CC(C)Nc1ccc2c(c1)/C(=C1\CCCN1C)C(=O)N2C(C)C` [Compound 115], the IC50 worked out at 30 nM. Under `CC(C)N1C(=O)C(=C2CCOCC2)c2cc(NC3CCCC3)ccc21` [Compound 116] stands 9 nM; under `O=C1/C(=C2/COCCN2)c2cc(N3CCCC3)ccc2N1C1CCOCC1` [Compound 117], 22 nM. To `CCOC(=O)N1CCC(N2C(=O)/C(=C3/COCCN3)c3cc(N4CCCC4)ccc32)CC1` [Compound 118] belongs 33 nM; to `COCC(C)N1C(=O)/C(=C2/COCCN2)c2cc(N3CCC(O)C3)ccc21` (stereo not shown) [Compound 119], 439 nM. Under `O=C1/C(=C2/CCOCCN2)c2cc(NC3CCC3)ccc2N1C1CCOCC1` [Compound 120] stands 51 nM; under `O=C1/C(=C2/CCN(C3COC3)CCN2)c2cc(N3CCCC3)ccc2N1C1CCOCC1` [Compound 121], 192 nM. Turning to `CC(C)N1CCC(N2C(=O)/C(=C3/COCCN3)c3cc(N(C(C)C)C(C)C)ccc32)CC1` [Compound 122], the IC50 came to 944 nM. As to `CC1CCCC1Nc1ccc2c(c1)/C(=C1\COCCN1)C(=O)N2C(C)C` (stereo not shown) [Compound 124], the IC50 was determined as 15 nM. To `CC1OCCC1Nc1ccc2c(c1)/C(=C1\COCCN1)C(=O)N2C(C)C` (stereo not shown) [Compound 125] belongs 112 nM; to `CC(Nc1ccc2c(c1)/C(=C1\COCCN1)C(=O)N2C(C)C)c1cncnc1` (stereo not shown) [Compound 126], 179 nM. Under `CC(C)N1C(=O)/C(=C2/COCCN2)c2cc(NCC3(C)COC3)ccc21` [Compound 127] stands 176 nM. For `CC(C)N1C(=O)/C(=C2/CCOCCN2)c2cc(N3C(C)CCC3C)ccc21` (stereo not shown) [Compound 128], the IC50 amounted to 47 nM. Take `CC(C)N1C(=O)/C(=C2/CCOCCN2)c2cc(N3CCCC3)ccc21` [Compound 129]: the IC50 turned out to be 23 nM. To `CC(C)N1C(=O)/C(=C2/COCCN2)c2cc(N3CCCC3)ccc21` [Compound 130] belongs 45 nM; to `O=C1/C(=C2/COCCN2)c2cc(NC3CCC3)ccc2N1C1CCOCC1` [Compound 132], 21 nM; to `CC(C)Nc1ccc2c(c1)/C(=C1\CCCCN1)C(=O)N2C(C)C` [Compound 133], 23 nM.

For the molecule `CC(C)Nc1ccc2c(c1)/C(=C1\CN(C3CCOCC3)CCN1)C(=O)N2C(C)C` [Compound 134], the IC50 stood at 44 nM.

Turning to `CC(C)Nc1ccc2c(c1)/C(=C1\COCCN1)C(=O)N2C1COC1` [Compound 135], the IC50 amounted to 158 nM. As for `CCC(CC)Nc1ccc2c(c1)/C(=C1\COCCN1)C(=O)N2C1COC1` [Compound 136], the IC50 was determined as 18 nM. To `COCC(C)Nc1ccc2c(c1)/C(=C1\COCCN1)C(=O)N2C1COC1` (stereo not shown) [Compound 137] belongs 886 nM. `CC(C)Nc1ccc2c(c1)/C(=C1\COC3(CCN(C(C)C)CC3)CN1)C(=O)N2C(C)C` [Compound 138]: the IC50 was found to be 6 nM. With `CC(C)N1CCC2(CC1)CN/C(=C1\C(=O)N(C(C)C)c3ccc(N4C(C)CCC4C)cc31)CO2` (stereo not shown) [Compound 139], the IC50 was found to be 18 nM. To `O=C1/C(=C2/CCOCCN2)c2cc(NC3CCOC3)ccc2N1C1CCOCC1` (stereo not shown) [Compound 140] belongs 524 nM. Under `O=C1/C(=C2/COCCCN2)c2cc(NC3CCOC3)ccc2N1C1CCOCC1` (stereo not shown) [Compound 141] stands 646 nM.

For the molecule `CC1CCC(C)N1c1ccc2c(c1)/C(=C1\COCCCN1)C(=O)N2C1CCOCC1` (stereo not shown) [Compound 142], the IC50 was found to be 94 nM. As to `CC(Nc1ccc2c(c1)/C(=C1\COCCN1)C(=O)N2C(C)C)c1ccncc1` (stereo not shown) [Compound 143], the IC50 amounted to 110 nM.

(Values after patent EP4291552B1, “MODULATORS OF COMPLEX I” (Boehringer Ingelheim International GmbH, priority 2021, dated 2022).)
